This note sets out measurements from patent publication US10517867B2, “Posaconazole derivative, pharmaceutical composition and use thereof” (priority 2016, dated 2019).

Usually solubility stands for how much of the substance goes into solution per volume. The low end stands for a poorly soluble substance, the high end for a readily soluble substance.

The nature of data set [1]: In vitro metabolic stability in rat plasma. It counts as in vitro ADME. Conditions: rat, plasma, 37° C., 10 μM compound, read-out: Rat plasma T1/2. As to the method: (§1) This example detects the metabolic stability of the compounds of the present disclosure in human (rat) plasma and intestinal S9 in vitro. In a human (rat) plasma reaction system, 990 μl of human (rat) plasma was taken and incubated at 37° C. for 5 minutes, and 10 μl of the compound mother liquor was used to initiate the reaction. In the human (rat) intestinal S9 stability experiment, in the order shown in Table 2 below, the samples were added and incubated in a 37° C. water bath to initiate the reaction, each sample performed in triplicates. Respectively, at 1 minute, 2 minutes, 5 minutes, 15 minutes, 30 minutes after the reaction began, 100 μL of each was taken and added to a centrifuge tube containing 400 μL of 0° C. precooled internal standard working solution. The reaction was terminated, vortexed and mixed for 1 minute, centrifuged at 10000×g for 10 minutes in a 4° C. precooled high-speed centrifuge, and the supernatant was detected with HPLC. The test results were used to calculate metabolic half-life using WinNonlin (version 6.2 Pharsight, Mountain View, Calif.) with a non-compartmental model.
(§2) Compound stock solution concentration: 1 mM
(§3) Reaction matrix: human (rat) plasma, intestinal S9 purchased from Research Institute for Liver Diseases (Shanghai) Co., Ltd.

A short description of data set [2]: Determination of solubility in deionized water (HPLC, external standard). Conditions: 25 °C, water, thermodynamic from solid.
The nature of data set [3]: In vitro metabolic stability in human intestine S9. It counts as in vitro ADME. Conditions: human, 37° C., 10 μM compound, 1 mg/mL S9, NADPH regeneration system, read-out: Human intestine S9 T1/2. As to the method:
as §1, §2, §3

Data set [4] is described as follows: In vitro metabolic stability in human plasma. The format is in vitro ADME. Conditions: human, plasma, 37° C., 10 μM compound, read-out: Human plasma T1/2. As to the method:
as §1, §2, §3

The test system of data set [5] is Candida albicans ATCC10231. Nature of the data set: Systemic fungal infection in mice, intragastric administration. It counts as in vivo, ICR mice. The conditions noted are these: Candida albicans, ATCC10231, po. The method, then:
(§4) ICR mice, weighing 18-22 g, male, provided by Hubei Experimental Animal Center.
Prior to the experiment, a small amount of Candida albicans was picked from an SDA medium kept at 4° C. with an inoculation loop and inoculated into 1 ml YPD culture medium, cultured at 30° C. with 200 rpm shaking and activated for 16 hours, so that the fungus was in the late stage of exponential growth. Counted with a hemocytometer and the fungal solution concentration was adjusted to 1×10^3 to 5×10^3 CFU/ml with RPMI1640 medium. Monoclonal Candida albicans on SDA plate was picked up, inoculated into 1 ml YPD (Yeast Extract Peptone Dextrose Medium, the same below) culture medium, cultured at 35° C., 200 rpm for 16 hours until late exponential growth phase. Candida albicans was inoculated into fresh medium for culturing for 6 hours at 1%, centrifuged at 1000×g for 5 minutes, washed with physiological saline three times until the supernatant was colorless, counted with a hemocytometer, and the cell concentration was adjusted to 5×10^6 cells/ml. A tail vein injection of 0.1 ml/10 g caused a systemic fungal infection in mice. […] A total of 7 days of observations were performed. All dead mice were burned with ethanol.

A short description of data set [6]: Solid stability test (stability chamber, HPLC total impurity). It counts as physicochemical.
The nature of data set [7]: In vitro metabolic stability in rat intestine S9. It counts as in vitro ADME. Conditions: rat, 37° C., 10 μM compound, 1 mg/mL S9, NADPH regeneration system, read-out: Rat intestine S9 T1/2. As to the method: as §1, §2, §3
Data set [8] has as its system Candida albicans ATCC10231. Nature of the data set: Systemic fungal infection in mice, intravenous administration. It counts as in vivo, ICR mice. As to the method:
as §4
Prior to the experiment, a small amount of Candida albicans was picked from an SDA (sacharomyces agar, the same below) medium kept at 4° C. with an inoculation loop and inoculated into 1 ml YPD (Yeast Extract Peptone Dextrose Medium) culture medium, cultured at 30° C. with 200 rpm shaking and activated for 16 hours, so that the fungus was in the late stage of exponential growth. Counted with a hemocytometer and the fungal solution concentration was adjusted to 1×10^3-5×10^3 CFU/ml with RPMI1640 medium (Roswell Park Memorial Institute 1640, the same below). Monoclonal Candida albicans on SDA plate was picked up, inoculated into 1 ml YPD (Yeast Extract Peptone Dextrose Medium, the same below) culture medium, cultured at 35° C., 200 rpm for 16 hours until late exponential growth phase. Candida albicans was inoculated into fresh medium for culturing for 6 hours at 1%, centrifuged at 1000×g for 5 minutes, washed with physiological saline three times until the supernatant was colorless, counted with a hemocytometer, and the cell concentration was adjusted to 5×10^6 cells/ml. A tail vein injection of 0.1 ml/10 g caused a systemic fungal infection in mice. […] A total of 7 days of observations were performed. All dead mice were burned with ethanol.

Setting [9] is: 24 h, read-out: survival rate of mice, day 1, 20 mg/kg intragastric once daily for 5 days, day 1.
Where [10] appears, read: 48 h, read-out: survival rate of mice, day 2, 20 mg/kg intragastric once daily for 5 days, day 2.
The mark [11] stands for this setting: 72 h, read-out: survival rate of mice, day 3, 20 mg/kg intragastric once daily for 5 days, day 3.
The mark [12] stands for this setting: 96 h, read-out: survival rate of mice, day 4, 20 mg/kg intragastric once daily for 5 days, day 4.
Where [13] appears, read: 120 h, read-out: survival rate of mice, day 5, 20 mg/kg intragastric once daily for 5 days, day 5.
[14] abbreviates: 144 h, read-out: survival rate of mice, day 6, 20 mg/kg intragastric once daily for 5 days, day 6.
[15] abbreviates: 168 h, read-out: survival rate of mice, day 7, 20 mg/kg intragastric once daily for 5 days, day 7.

Where two headings read alike, the source gives them in different places. Some results are limits rather than exact numbers.

With `CC[C@@H]([C@H](C)O)n1ncn(-c2ccc(N3CCN(c4ccc(OC[C@@H]5CO[C@@](Cn6c[n+](C(C)OC(=O)N(C)c7ncccc7COC(=O)[C@@H](N)CCC(N)=O)cn6)(c6ccc(F)cc6F)C5)cc4)CC3)cc2)c1=O` (stereo partly drawn) [ST0022], the half-life at 10 µM in data set [1] was 1.12 ± 0.45 min; in data set [3] (intestinal S9) it was 17.7 ± 4.52 min; in data set [4] it was 1.39 ± 0.52 min; in data set [7] (intestinal S9, pH 7.4), 19 ± 5.36 min. The compound also displayed a solubility at 30 min in data set [2] of over 50 mg/mL. Also, the responders at 20 mg/kg was 100% in data set [5] (setting [9]); 100% in data set [5] (setting [10]); 100% in data set [5] (setting [11]); 90% in data set [5] (setting [12]); 80% in data set [5] (setting [13]); 80% in data set [5] (setting [14]). The responders at 20 mg/kg in data set [5] (setting [15]) stood at 70%. Besides, the “Total impurity increment in 30 days” value in data set [6] came out at 0.48%.

For the compound `CC[C@@H]([C@H](C)O)n1ncn(-c2ccc(N3CCN(c4ccc(OC[C@@H]5CO[C@@](Cn6c[n+](C(C)OC(=O)N(C)c7ncccc7COC(=O)[C@@H](N)Cc7ccc(O)cc7)cn6)(c6ccc(F)cc6F)C5)cc4)CC3)cc2)c1=O` (stereo partly drawn) [ST0027], the half-life at 10 µM in data set [1] amounted to 15.9 ± 7.85 min; in data set [3] (intestinal S9) it was 45.9 ± 8.12 min; in data set [4] it was 20.4 ± 3.65 min; in data set [7] (intestinal S9, pH 7.4), 39.5 ± 6.69 min. The same compound yielded a solubility at 30 min in data set [2] of over 50 mg/mL. Also, the “Total impurity increment in 30 days” value in data set [6] is reported as 0.75%.

As to `CC[C@@H]([C@H](C)O)n1ncn(-c2ccc(N3CCN(c4ccc(OC[C@@H]5CO[C@@](Cn6c[n+](C(C)OC(=O)N(C)c7ncccc7COC(=O)[C@@H](N)[C@@H](C)O)cn6)(c6ccc(F)cc6F)C5)cc4)CC3)cc2)c1=O` (stereo partly drawn) [ST0026], the half-life at 10 µM in data set [1] turned out to be 2.69 ± 1.21 min; in data set [3] (intestinal S9), 16.4 ± 7.54 min; in data set [4], 1.03 ± 0.09 min; in data set [7] (intestinal S9, pH 7.4), 19 ± 5.96 min. In data set [2], this compound gave a solubility at 30 min of over 50 mg/mL. The responders at 20 mg/kg came out at 100% in data set [5] (setting [9]); 100% in data set [5] (setting [10]); 90% in data set [5] (setting [11]); 80% in data set [5] (setting [12]); 70% in data set [5] (setting [13]); 70% in data set [5] (setting [14]). In data set [5] (setting [15]), the responders at 20 mg/kg stood at 70%. The “Total impurity increment in 30 days” value in data set [6] is 0.46%.

For the compound `CC[C@@H]([C@H](C)O)n1ncn(-c2ccc(N3CCN(c4ccc(OC[C@@H]5CO[C@@](Cn6c[n+](C(C)OC(=O)N(C)c7ncccc7COC(=O)CN(C)C)cn6)(c6ccc(F)cc6F)C5)cc4)CC3)cc2)c1=O` (stereo partly drawn) [ST0045], the half-life at 10 µM in data set [1] worked out at 11.9 ± 2.96 min; in data set [3] (intestinal S9) it was 33.2 ± 4.23 min; in data set [4] it was 15.2 ± 3.99 min; in data set [7] (intestinal S9, pH 7.4) it was 26 ± 5.69 min. In data set [2], this compound displayed a solubility at 30 min of over 50 mg/mL. The “Total impurity increment in 30 days” value in data set [6] was 1.68%.

Consider `CC[C@@H](C(C)OC(=O)OCOC(=O)CCCCCCOP(=O)([O-])[O-])n1ncn(-c2ccc(N3CCN(c4ccc(OC[C@@H]5CO[C@@](Cn6cncn6)(c6ccc(F)cc6F)C5)cc4)CC3)cc2)c1=O.[Na+].[Na+]` (stereo partly drawn) [ST0074], for which the half-life at 10 µM in data set [1] was 1.26 ± 0.54 min; in data set [3] it was 20 ± 4.66 min; in data set [4], 0.86 ± 0.07 min; in data set [7] (pH 7.4), 18.2 ± 5.66 min. Moreover, the solubility at 30 min in data set [2] was over 50 mg/mL. Moreover, the responders at 20 mg/kg in data set [8] (24 h, read-out: survival rate of mice, day 1) is 100%; in data set [8] (48 h, read-out: survival rate of mice, day 2), 100%; in data set [8] (72 h, read-out: survival rate of mice, day 3), 90%; in data set [8] (96 h, read-out: survival rate of mice, day 4), 90%; in data set [8] (120 h, read-out: survival rate of mice, day 5) it was 90%; in data set [8] (144 h, read-out: survival rate of mice, day 6) it was 90%. Further, the responders at 20 mg/kg worked out at 90% in data set [8] (168 h, read-out: survival rate of mice, day 7); 100% in data set [5] (setting [9]); 100% in data set [5] (setting [10]); 90% in data set [5] (setting [11]); 80% in data set [5] (setting [12]); 80% in data set [5] (setting [13]). In addition, the responders at 20 mg/kg in data set [5] (setting [14]) stood at 80%; in data set [5] (setting [15]) it was 70%.

Take `CC[C@@H]([C@H](C)OC(=O)OC(C)OC(=O)CNC)n1ncn(-c2ccc(N3CCN(c4ccc(OC[C@@H]5CO[C@@](Cn6cncn6)(c6ccc(F)cc6F)C5)cc4)CC3)cc2)c1=O.Cl` (stereo partly drawn) [ST0053]: the half-life at 10 µM in data set [1] came out at 21.2 ± 4.52 min; in data set [3] (intestinal S9), 50.2 ± 5.15 min; in data set [4], 19.9 ± 3.01 min; in data set [7] (intestinal S9, pH 7.4), 48.2 ± 6.85 min. Also, the responders at 20 mg/kg in data set [5] (24 h, 20 mg/kg intragastric once daily for 5 days, day 1, read-out: survival rate of mice, day 1) amounted to 90%; in data set [5] (48 h, 20 mg/kg intragastric once daily for 5 days, day 2, read-out: survival rate of mice, day 2) it was 80%; in data set [5] (72 h, 20 mg/kg intragastric once daily for 5 days, day 3, read-out: survival rate of mice, day 3), 70%; in data set [5] (96 h, 20 mg/kg intragastric once daily for 5 days, day 4, read-out: survival rate of mice, day 4), 60%; in data set [5] (120 h, 20 mg/kg intragastric once daily for 5 days, day 5, read-out: survival rate of mice, day 5), 60%; in data set [5] (144 h, 20 mg/kg intragastric once daily for 5 days, day 6, read-out: survival rate of mice, day 6) it was 60%. Moreover, the responders at 20 mg/kg in data set [5] (168 h, 20 mg/kg intragastric once daily for 5 days, day 7, read-out: survival rate of mice, day 7) turned out to be 60%. For the same compound, the “Total impurity increment in 30 days” value in data set [6] (solid, packaged, 25° C.±2° C., relative humidity 60%±2%) is recorded as 0.85%.
